Data: patent publication US7989450B2, “Functionalized diarylisoxazoles inhibitors of ciclooxygenase” (Universita' Degli Studi Di Bari, priority 2008, dated 2011)

Assays:
[1] = target: T1, monocyte COX-2 induced by LPS (Homo sapiens, UniProt P35354); experiment: Biosynthesis of PGE2 in LPS-stimulated human whole blood, index of monocyte COX-2 activity; type: cell-based; conditions: human whole blood method, 24 hours at 37° C.; for IC50: LPS 10 microg/ml, PGE2 by RIA
T1 construct: incubated with heparinised whole blood in the presence of LPS (10 microg/ml) for 24 hours at 37° C; endogenous in cells; host or cells: LPS-stimulated monocytes in heparinised whole blood of healthy human volunteers
T1 sequence (P35354 18-604): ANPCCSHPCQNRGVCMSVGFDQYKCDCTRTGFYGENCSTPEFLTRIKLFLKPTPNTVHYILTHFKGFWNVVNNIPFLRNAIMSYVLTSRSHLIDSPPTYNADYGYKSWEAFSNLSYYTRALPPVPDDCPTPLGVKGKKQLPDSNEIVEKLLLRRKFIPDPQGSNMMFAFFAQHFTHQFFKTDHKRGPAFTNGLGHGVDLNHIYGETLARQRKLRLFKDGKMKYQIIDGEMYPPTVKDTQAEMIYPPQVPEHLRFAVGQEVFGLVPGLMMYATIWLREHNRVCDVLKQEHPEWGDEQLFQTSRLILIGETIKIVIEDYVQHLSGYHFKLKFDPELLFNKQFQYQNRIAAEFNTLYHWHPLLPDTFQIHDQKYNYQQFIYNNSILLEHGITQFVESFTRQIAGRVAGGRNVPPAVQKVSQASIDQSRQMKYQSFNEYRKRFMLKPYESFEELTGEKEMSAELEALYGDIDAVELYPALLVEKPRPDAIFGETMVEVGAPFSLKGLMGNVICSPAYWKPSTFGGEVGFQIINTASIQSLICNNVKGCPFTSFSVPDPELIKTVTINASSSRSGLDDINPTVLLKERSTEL
Procedure: (§1) Fourteen healthy volunteers (25-34 years) were enrolled to take part in the study and were studied on various occasions. Peripheral venous blood samples were taken from donors who had not taken FANS in the 2 weeks prior to the study.
Biosynthesis of PGE2 in the Whole Blood as an Index of Monocyte COX-2 Activity Induced by LPS.
Aliquots of 1 ml of whole blood taken from the cubital vein with a syringe containing heparin (20 IU/ml blood) were incubated with lipopolysaccharide (LPS, from Escherichia coli 026:B6; Sigma Chemical Company, St. Louis, Mo.) (10 μg/ml) for 24 hours at 37° C. The plasma was separated by centrifugation and kept at −70° C. The PGE2 was measured with a specific radioimmunological assay (RIA) as an index of monocyte COX-2 activity induced by LPS.

platelet COX-1 = target: T2, platelet COX-1 (Homo sapiens, UniProt P23219); experiment: Biosynthesis of TXB2 in human whole blood left to coagulate, index of platelet COX-1 activity; type: cell-based; conditions: human whole blood method, coagulation 1 hour at 37° C., TXB2 by RIA
T2 construct: 1 ml aliquots of whole blood were immediately transferred into glass test tubes and left to coagulate at 37° C; endogenous in cells; host or cells: platelets in whole blood of healthy human volunteers
Procedure: as §1
1 ml aliquots of whole blood were immediately transferred into glass test tubes and left to coagulate at 37° C. for 60 minutes.

[2] = secondary prevention, various groups of patients; cited from earlier work

T2 sequence (P23219 24-599): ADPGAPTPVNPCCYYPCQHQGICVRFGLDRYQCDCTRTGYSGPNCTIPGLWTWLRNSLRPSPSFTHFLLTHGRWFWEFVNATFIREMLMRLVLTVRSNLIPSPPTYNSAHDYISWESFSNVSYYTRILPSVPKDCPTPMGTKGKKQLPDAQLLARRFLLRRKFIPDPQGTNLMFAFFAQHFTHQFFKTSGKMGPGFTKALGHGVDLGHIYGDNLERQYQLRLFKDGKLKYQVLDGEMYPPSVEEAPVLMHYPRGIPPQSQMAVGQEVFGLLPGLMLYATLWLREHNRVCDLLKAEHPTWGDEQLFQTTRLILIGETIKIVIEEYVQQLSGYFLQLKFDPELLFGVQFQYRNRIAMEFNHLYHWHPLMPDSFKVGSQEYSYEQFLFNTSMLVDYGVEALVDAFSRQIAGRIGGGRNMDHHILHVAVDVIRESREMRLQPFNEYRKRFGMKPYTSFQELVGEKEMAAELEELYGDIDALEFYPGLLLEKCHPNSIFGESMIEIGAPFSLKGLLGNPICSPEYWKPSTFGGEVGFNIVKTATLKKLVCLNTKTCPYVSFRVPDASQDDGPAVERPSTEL

| Compound | melting point | IC50 (platelet COX-1) | further results |
| --- | --- | --- | --- |
| CC1(O)ON=C(c2ccc(Cl)o2)C1c1ccc(F)cc1 (stereo not drawn) [Example 2, 3-(5-Chlorofuran-2-yl)-4-(4-fluorophenyl)-5-hydroxy-5-methyl-2-isoxazoline] | 101 to 102 °C |  |  |
| Cc1onc(-c2ccc(Cl)o2)c1-c1ccc(F)cc1 [Example 6, 3-(5-Chlorofuran-2-yl)-4-(4-fluorophenyl)-5-methylisoxazole] | 103.7 to 105.2 °C | 1.9 µM | IC50 [1]: > 100 µM |
| Cc1onc(-c2ccc(Cl)o2)c1-c1ccccc1F [Example 7, 3-(5-Chlorofuran-2-yl)-4-(2-fluorophenyl)-5-methylisoxazole] |  | 1.9 µM | IC50 [1]: > 100 µM |
| Cc1onc(-c2ccco2)c1-c1ccccc1 [Example 12, 3-(Furan-2-yl)-4-phenyl-5-methylisoxazole] | 93 to 96 °C |  |  |
| Cc1onc(-c2ccc(Br)o2)c1-c1ccccc1 [Example 14, 3-(5-Bromofuran-2-yl)-4-phenyl-5-methylisoxazole] | 93 to 96 °C |  |  |
| CC(=O)OCc1onc(-c2ccc(Cl)o2)c1-c1ccccc1 [Example 18, 5-Acetoxymethyl-3-(5-chlorofuran-2-yl)-4-phenylisoxazole] |  | 5.2 µM | IC50 [1]: > 100 µM |
| CC(=O)Oc1ccccc1C(=O)O [aspirin, acetylsalicylic acid] |  |  | prevention of non fatal vascular events [2]: 25-30%; prevention of vascular death [2]: 15-20% |

Second part, led by results:

| melting point | IC50 (platelet COX-1) | Compound | further results |
| --- | --- | --- | --- |
| 55 to 57 °C | 0.81 µM | FC(F)(F)c1onc(-c2ccc(Cl)o2)c1-c1ccccc1 [Example 5, 3-(5-Chlorofuran-2-yl)-4-phenyl-5-(trifluoromethyl)isoxazole] | IC50 [1]: > 100 µM |
| 168 to 170 °C |  | O=C(O)c1onc(-c2ccc(Cl)o2)c1-c1ccccc1 [Example 15, [3-(5chlorofuran-2-yl)-4-phenylisoxazol-5-yl]carboxylic acid] |  |
| 130 to 131 °C |  | COC(=O)c1onc(-c2ccc(Cl)o2)c1-c1ccccc1 [Example 16, Methyl [3-(5-chlorofuran-2-yl)-4-phenylisoxazol-5-yl]carboxylate] |  |
| 102 to 103 °C | 4.2 µM | OCc1onc(-c2ccc(Cl)o2)c1-c1ccccc1 [Example 17, 3-(5-Chlorofuran-2-yl)-4-phenyl-5-hydroxymethylisoxazole] | inhibition at 100 µM ([1]; 100 μM, LPS, read-out: COX-2 inhibition (I) at 100 μM): 44% |
| 82 to 83.7 °C |  | O=C(OCCCN1CCOCC1)c1onc(-c2ccc(Cl)o2)c1-c1ccccc1 [Example 19, 3-(Morpholin-1-yl)propyl[3-(5-chlorofuran-2-yl)-4-phenylisoxazol-5-yl]carboxilate] |  |
| 100 to 101 °C |  | O=C(OCCCBr)c1onc(-c2ccc(Cl)o2)c1-c1ccccc1 [Example 20, 3-Bromopropyl[3-(5-chlorofuran-2-yl)-4-phenylisoxazol-5-yl]carboxylate] |  |
| 79 to 79.8 °C |  | O=C(OCCCO[N+](=O)[O-])c1onc(-c2ccc(Cl)o2)c1-c1ccccc1 [Example 21, 3-(Nitroxy)propyl[3-(5-chlorofuran-2-yl)-4-phenylisoxazol-5-yl]carboxylate] |  |
| 113 to 117 °C (dec.) |  | COC(=O)c1c(-c2ccc(Cl)o2)noc1-c1ccccc1 [Example 22, Methyl3[-(5-chlorofuran-2-yl)-5-phenylisoxazol-4-yl]carboxylate] |  |
